Key:
[1] = target: RAF proto-oncogene serine/threonine-protein kinase (Homo sapiens) (UniProt P04049); assay: Inhibition of human truncated c-Raf expressed in baculovirus assessed as substrate phosphorylation using fluorescence-labelled peptides as substrate at 420 uM after 90 mins by microfluidic peptide phosphorylation assay
[2] = test system: Tyrosine-protein kinase ABL1 (Homo sapiens), P00519 [T315I]; assay: Inhibition of human truncated ABL T315I mutant expressed in baculovirus assessed as substrate phosphorylation using fluorescence-labelled peptides as substrate at 420 uM after 90 mins by microfluidic peptide phosphorylation assay
[3] = target: MAP kinase-activated protein kinase 2 (Homo sapiens) (UniProt P49137); assay: Inhibition of human full length MAPKAPK2 expressed in baculovirus assessed as substrate phosphorylation using fluorescence-labelled peptides as substrate at 420 uM after 90 mins by microfluidic peptide phosphorylation assay
[4] = target: Protein kinase C theta type (Homo sapiens) (UniProt Q04759); assay: Inhibition of human truncated PKC theta expressed in baculovirus assessed as substrate phosphorylation using fluorescence-labelled peptides as substrate at 0.1 uM after 90 mins by microfluidic peptide phosphorylation assay
[5] = target: T1, Calcium/calmodulin-dependent protein kinase type IV (Homo sapiens) (UniProt Q16566); assay: Inhibition of human full length CAMK4 expressed in baculovirus assessed as substrate phosphorylation using fluorescence-labelled peptides as substrate at […] after 90 mins by microfluidic peptide phosphorylation assay
T1 sequence (whole entry): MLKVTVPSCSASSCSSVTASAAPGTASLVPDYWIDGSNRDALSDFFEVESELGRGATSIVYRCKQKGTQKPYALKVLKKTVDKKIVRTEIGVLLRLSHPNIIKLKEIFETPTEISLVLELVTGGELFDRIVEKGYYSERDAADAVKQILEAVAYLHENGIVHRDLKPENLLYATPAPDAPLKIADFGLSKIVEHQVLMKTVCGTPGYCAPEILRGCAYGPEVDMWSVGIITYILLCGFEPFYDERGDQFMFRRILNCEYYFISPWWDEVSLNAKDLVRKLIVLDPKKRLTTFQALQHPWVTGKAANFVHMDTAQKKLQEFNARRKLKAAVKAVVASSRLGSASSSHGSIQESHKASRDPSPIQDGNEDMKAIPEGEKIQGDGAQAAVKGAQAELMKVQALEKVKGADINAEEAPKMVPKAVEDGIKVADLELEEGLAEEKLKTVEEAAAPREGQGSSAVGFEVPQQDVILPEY

[6] = target: T2, Serine/threonine-protein kinase BRSK2 (Homo sapiens) (UniProt Q8IWQ3); assay: Inhibition of human truncated BRSK2 expressed in baculovirus assessed as substrate phosphorylation using fluorescence-labelled peptides as substrate at 70 uM after 90 mins by microfluidic peptide phosphorylation assay
T2 sequence (whole entry): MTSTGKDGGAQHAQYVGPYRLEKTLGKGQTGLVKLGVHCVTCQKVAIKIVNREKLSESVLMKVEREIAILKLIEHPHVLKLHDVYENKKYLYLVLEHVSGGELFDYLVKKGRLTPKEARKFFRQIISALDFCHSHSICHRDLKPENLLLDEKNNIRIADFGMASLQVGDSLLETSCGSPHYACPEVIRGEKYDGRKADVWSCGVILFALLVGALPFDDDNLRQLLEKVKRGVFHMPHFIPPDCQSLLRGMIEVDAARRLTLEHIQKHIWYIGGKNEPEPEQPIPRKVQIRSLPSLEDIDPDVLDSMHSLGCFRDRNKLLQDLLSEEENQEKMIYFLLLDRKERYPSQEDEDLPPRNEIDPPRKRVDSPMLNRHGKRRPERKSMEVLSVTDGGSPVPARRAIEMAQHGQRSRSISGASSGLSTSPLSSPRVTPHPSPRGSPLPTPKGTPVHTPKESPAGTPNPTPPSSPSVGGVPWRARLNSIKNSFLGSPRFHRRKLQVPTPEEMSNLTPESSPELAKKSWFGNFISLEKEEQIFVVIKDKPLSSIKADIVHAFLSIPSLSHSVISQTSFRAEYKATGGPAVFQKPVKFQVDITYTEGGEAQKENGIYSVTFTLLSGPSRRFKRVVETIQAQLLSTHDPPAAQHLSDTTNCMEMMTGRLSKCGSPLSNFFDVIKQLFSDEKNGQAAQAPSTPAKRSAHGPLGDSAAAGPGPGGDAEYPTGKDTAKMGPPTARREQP

[7] = target: MAP kinase-activated protein kinase 3 (Homo sapiens) (UniProt Q16644); assay: Inhibition of human full length MAPKAPK3 expressed in Escherichia coli cell assessed as substrate phosphorylation using fluorescence-labelled peptides as substrate at 70 uM after 90 mins by microfluidic peptide phosphorylation assay
[8] = target: MAP kinase p38 (Homo sapiens) (UniProt O15264+Q15759+Q16539+P53778); assay: Inhibition of human full length p38 beta2 expressed in Escherichia coli cell assessed as substrate phosphorylation using fluorescence-labelled peptides as substrate at 70 uM after 90 mins by microfluidic peptide phosphorylation assay
[9] = target: T3, Serine/threonine-protein kinase D3 (Homo sapiens) (UniProt O94806); assay: Inhibition of human full length PKD3 expressed in baculovirus assessed as substrate phosphorylation using fluorescence-labelled peptides as substrate at 1000 uM after 90 mins by microfluidic peptide phosphorylation assay
T3 sequence (whole entry): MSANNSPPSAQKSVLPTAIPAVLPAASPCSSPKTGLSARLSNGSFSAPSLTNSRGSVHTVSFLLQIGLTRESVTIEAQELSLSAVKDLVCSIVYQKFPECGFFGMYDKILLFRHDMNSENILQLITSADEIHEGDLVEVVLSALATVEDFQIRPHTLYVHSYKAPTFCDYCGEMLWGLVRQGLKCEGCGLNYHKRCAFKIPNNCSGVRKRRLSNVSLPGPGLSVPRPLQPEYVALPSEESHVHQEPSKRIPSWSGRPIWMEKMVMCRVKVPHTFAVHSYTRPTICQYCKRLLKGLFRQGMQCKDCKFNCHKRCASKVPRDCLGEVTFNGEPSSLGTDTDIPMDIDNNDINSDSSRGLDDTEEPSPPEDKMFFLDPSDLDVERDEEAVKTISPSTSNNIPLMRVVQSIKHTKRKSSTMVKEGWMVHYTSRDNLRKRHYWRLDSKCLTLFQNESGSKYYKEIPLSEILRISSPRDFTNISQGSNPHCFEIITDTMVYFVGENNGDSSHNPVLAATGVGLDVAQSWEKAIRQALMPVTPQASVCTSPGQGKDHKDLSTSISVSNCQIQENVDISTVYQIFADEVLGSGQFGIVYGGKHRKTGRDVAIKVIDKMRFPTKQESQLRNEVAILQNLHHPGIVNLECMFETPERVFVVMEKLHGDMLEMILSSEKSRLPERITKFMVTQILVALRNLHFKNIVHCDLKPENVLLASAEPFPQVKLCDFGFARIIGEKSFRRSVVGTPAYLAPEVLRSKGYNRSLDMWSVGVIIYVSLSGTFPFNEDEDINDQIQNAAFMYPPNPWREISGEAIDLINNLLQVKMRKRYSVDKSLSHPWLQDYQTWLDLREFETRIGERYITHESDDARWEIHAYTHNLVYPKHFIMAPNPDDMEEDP

Sequence of Protein kinase C theta type (Homo sapiens) (Q04759 whole entry, looked up, the tested form may be a part): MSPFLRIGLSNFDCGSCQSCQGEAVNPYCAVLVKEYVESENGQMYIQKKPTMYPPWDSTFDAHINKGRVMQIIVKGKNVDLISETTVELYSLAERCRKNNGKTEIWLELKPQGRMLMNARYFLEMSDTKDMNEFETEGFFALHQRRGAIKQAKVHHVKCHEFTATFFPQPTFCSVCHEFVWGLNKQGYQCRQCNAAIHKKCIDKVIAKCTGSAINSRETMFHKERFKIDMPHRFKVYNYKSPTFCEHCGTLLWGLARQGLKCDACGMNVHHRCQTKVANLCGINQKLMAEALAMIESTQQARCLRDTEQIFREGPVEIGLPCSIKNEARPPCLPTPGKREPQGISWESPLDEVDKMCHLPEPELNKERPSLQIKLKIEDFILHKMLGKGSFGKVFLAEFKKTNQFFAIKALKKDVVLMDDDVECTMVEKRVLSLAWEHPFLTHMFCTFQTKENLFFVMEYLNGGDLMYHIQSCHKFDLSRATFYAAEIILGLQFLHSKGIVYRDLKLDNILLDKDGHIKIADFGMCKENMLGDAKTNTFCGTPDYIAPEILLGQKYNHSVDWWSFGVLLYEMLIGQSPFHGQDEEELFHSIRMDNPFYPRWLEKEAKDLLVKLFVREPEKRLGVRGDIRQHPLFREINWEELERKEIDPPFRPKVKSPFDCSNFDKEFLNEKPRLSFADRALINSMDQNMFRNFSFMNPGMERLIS
Sequence of MAP kinase-activated protein kinase 3 (Homo sapiens) (Q16644 whole entry, looked up): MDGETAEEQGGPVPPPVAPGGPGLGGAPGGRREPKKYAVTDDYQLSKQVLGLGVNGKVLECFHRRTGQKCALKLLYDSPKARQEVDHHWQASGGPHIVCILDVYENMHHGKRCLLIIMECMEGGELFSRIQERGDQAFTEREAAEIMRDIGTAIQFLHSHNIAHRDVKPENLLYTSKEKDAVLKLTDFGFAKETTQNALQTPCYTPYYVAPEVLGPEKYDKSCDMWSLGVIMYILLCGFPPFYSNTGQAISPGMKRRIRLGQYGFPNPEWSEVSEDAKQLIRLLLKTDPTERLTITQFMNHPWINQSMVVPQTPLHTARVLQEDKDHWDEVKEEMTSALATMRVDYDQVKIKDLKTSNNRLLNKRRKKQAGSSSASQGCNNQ
Sequence of MAP kinase-activated protein kinase 2 (Homo sapiens) (P49137 whole entry, looked up, the tested form may be a part): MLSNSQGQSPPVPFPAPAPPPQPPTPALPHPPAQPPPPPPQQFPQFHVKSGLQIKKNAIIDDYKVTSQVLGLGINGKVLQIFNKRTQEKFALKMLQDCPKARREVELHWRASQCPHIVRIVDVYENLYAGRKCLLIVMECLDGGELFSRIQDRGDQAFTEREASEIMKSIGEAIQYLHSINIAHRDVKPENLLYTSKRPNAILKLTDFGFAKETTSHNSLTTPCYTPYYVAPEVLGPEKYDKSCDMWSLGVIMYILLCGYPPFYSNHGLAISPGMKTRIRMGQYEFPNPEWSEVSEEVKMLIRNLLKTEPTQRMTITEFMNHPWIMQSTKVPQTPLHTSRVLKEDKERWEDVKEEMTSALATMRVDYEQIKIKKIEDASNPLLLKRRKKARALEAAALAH
Sequence of RAF proto-oncogene serine/threonine-protein kinase (Homo sapiens) (P04049 whole entry, the tested form may be a part): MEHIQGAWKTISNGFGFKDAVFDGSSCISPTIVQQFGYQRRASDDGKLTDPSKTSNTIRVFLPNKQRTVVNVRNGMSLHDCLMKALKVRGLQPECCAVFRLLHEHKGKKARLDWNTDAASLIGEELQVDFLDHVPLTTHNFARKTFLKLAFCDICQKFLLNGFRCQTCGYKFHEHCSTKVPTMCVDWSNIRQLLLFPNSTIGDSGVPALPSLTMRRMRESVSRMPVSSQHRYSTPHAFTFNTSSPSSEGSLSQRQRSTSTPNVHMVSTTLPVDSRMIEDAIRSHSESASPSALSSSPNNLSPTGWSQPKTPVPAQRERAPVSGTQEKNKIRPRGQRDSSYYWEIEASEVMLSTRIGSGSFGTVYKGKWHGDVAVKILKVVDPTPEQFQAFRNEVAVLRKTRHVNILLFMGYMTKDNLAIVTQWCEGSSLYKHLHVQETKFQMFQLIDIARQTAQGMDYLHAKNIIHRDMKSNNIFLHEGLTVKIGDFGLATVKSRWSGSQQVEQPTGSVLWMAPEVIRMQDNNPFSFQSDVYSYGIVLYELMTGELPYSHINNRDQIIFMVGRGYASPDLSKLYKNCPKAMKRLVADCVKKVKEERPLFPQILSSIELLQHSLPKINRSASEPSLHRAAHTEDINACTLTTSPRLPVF

Structure (SMILES): c1nc(N2CCOCC2)c2nc[nH]c2n1
- inhibition [1]: 52%
- inhibition [2]: 73%
- inhibition [3]: 74%

Structure (SMILES): C[C@H](CN(C)C)Oc1nc(Nc2cc3cccc(Cl)c3cn2)cnc1C#N
- inhibition [4]: 5%

Structure (SMILES): COC(=O)c1cnc(Nc2cnc(C#N)cn2)cc1NCC1CCNCC1
- inhibition [5]: 0.5%

Structure (SMILES): CNCc1ccc(-c2ncnc3[nH]cnc23)cc1
- inhibition [6]: 43%
- inhibition [7]: 1.5%
- inhibition [8]: 1.5%

Structure (SMILES): c1cnc2[nH]ccc2c1
- inhibition [9]: 62.5%

Reference: ChEMBL document CHEMBL3132769, “Fragment growing to retain or alter the selectivity of anchored kinase hinge-binding fragments” (Medchemcomm, 2014)
